Converted amounts (≈) assume the structure as drawn.
Experiments:
Staphylococcus aureus [1] = experiment: Minimum inhibitory concentration, conventional plate test; format: cell-based; details: various pathogenic strains of Staphylococcus aureus
Source text: (§1) Die Ermittlung der antibiotischen Wirkung erfolgt z.B. einerseits in vitro durch die Bestimmung der mittleren effektiven Konzentration EC₅₀ für die Hemmung der RNA-Polymerase von Escherichia coli, sowie der minimalen Hemmkonzentration MIC ("minimum inhibitory concentration") im konventionellen Plattentest, andererseits in vivo an infizierten Mäusen und Ratten durch die Bestimmung von ED₅₀ (effektive Dosis, die für 50 % der Versuchstiere lebenserhaltend ist). Als Mikroorganismen werden für den vorliegenden Zweck insbesondere Mycobacterium tuberculosis TB H₃₇Rv und Staphylococcus aureus verwendet. Bei Verbindungen mit lipidsenkender Indikation wird eine antibiotische Wirksamkeit als nachteilig erachtet, da sie, insbesondere bei langfristiger Verabreichung, zur Bildung von gegen Antibiotika resistenten Stämmen von Mikroorganismen führen kann.

[2] = target: RNA-Polymerase von Escherichia coli (Escherichia coli, UniProt P0A8V2); experiment: Inhibition of RNA polymerase (antibiotic effect in vitro); format: biochemical; details: not yet reached at 100 µg/ml; read-out: EC₅₀ für die Inhibition der RNA-Polymerase
Source text: as §1

[3] = system: "very low density"-, "low-density"- bzw. "high density"-Lipoproteinen (VLDL, LDL bzw. HDL) im Serum; experiment: Lipid-lowering effect in rats: serum lipoproteins after oral dosing (arrangement A: genetically hypercholesterolaemic male rats; arrangement B: normolipaemic rats); format: in vivo, Ratten; details: repeated administration of 30 mg/kg daily
Source text: Die Diacyl-Verbindungen der vorliegenden Erfindung dagegen weisen, wenn überhaupt, eine nur marginale antibiotische Wirkung auf. Ueberraschenderweise besitzen sie jedoch eine lipidsenkende Wirkung, die in Tierversuchen, vorzugsweise an Säugetieren, z.B. an Ratten, nachgewiesen werden kann. So kann die Senkung von "very low density"-, "low-density"- bzw. "high density"-Lipoproteinen (VLDL, LDL bzw. HDL) im Serum in zwei Testanordnungen, und zwar in genetisch hypercholesterolämischen männlichen Ratten (Anordnung A) und normolipämischen Ratten beiden Geschlechts (Anordnung B) gezeigt werden.
Albino-Ratten mit einem Körpergewicht von 180-240 g, die freien Zugang zu Standard-Rattenfutter und Trinkwasser haben, werden verwendet, und zwar in Anordnung A Sprague Dawley Abkömmlinge des Stammes Tif:RAI und in Anordnung B Tiere des Wistar-Stammes IVa-WI. Die Testverbindung wird in einer Polyethylenglykollösung (mittleres Molekulargewicht von 400) oral an Gruppen von 8 bis 10 Ratten verabreicht, in der Anordnung A einmal täglich um 8 Uhr vormittags während drei aufeinanderfolgenden Tagen und zweimal, um 8 Uhr und 16 Uhr, am vierten Tag, oder im Falle der Anordnung B täglich während 5 aufeinanderfolgenden Tagen. Im Experiment A werden die Tiere 16 Stunden und im Experiment B zwei Stunden nach der letzten Gabe durch Ausblutenlassen vom Hals unter Anästhesie mit Ether getötet. […]

Staphylococcus aureus [4] = experiment: Antibiotic effect in vivo in infected mice; parameters: species or system Mäuse; details: mice infected with Staphylococcus aureus, single dose of 200 mg/kg
Source text: as §1

Chain of RNA-Polymerase von Escherichia coli (P0A800 whole entry): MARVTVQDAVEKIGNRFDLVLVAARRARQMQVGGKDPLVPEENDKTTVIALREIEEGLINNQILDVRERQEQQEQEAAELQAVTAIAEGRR
Chain of RNA-Polymerase von Escherichia coli (P0A8T7 whole entry, further chain): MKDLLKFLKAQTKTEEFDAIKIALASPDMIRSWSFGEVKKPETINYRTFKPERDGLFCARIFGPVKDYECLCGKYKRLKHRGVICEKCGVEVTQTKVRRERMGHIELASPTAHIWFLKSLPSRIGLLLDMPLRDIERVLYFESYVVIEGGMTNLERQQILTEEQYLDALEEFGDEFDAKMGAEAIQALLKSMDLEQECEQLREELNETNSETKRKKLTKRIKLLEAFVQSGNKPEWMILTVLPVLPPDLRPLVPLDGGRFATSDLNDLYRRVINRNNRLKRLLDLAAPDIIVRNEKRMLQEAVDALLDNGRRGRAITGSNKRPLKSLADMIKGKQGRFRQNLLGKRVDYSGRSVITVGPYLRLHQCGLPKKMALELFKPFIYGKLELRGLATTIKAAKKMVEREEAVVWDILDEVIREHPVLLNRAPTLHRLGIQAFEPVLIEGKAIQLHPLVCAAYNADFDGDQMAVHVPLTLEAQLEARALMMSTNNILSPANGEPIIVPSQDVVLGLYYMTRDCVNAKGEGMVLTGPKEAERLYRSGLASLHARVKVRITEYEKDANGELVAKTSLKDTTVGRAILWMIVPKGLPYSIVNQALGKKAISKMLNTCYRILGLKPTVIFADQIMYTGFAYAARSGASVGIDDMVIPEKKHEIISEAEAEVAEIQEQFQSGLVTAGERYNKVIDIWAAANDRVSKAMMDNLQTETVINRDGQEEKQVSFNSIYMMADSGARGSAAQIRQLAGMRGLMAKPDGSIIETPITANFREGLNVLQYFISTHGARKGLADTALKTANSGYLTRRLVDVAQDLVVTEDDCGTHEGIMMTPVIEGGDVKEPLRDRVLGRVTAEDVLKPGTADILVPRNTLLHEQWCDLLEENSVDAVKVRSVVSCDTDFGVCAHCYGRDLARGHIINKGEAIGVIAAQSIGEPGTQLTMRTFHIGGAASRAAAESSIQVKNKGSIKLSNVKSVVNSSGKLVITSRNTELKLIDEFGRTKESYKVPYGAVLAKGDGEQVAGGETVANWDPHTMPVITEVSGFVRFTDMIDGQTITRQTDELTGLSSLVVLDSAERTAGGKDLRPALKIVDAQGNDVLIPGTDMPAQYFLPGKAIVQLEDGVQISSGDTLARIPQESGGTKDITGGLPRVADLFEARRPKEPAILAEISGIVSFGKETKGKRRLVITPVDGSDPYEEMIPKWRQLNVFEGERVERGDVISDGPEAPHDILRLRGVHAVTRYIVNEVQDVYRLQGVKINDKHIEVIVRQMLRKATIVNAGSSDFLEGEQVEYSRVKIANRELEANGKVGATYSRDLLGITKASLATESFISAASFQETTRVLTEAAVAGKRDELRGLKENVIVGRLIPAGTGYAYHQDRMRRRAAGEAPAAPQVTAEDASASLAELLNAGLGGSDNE
Chain of RNA-Polymerase von Escherichia coli (P0A8V2 whole entry): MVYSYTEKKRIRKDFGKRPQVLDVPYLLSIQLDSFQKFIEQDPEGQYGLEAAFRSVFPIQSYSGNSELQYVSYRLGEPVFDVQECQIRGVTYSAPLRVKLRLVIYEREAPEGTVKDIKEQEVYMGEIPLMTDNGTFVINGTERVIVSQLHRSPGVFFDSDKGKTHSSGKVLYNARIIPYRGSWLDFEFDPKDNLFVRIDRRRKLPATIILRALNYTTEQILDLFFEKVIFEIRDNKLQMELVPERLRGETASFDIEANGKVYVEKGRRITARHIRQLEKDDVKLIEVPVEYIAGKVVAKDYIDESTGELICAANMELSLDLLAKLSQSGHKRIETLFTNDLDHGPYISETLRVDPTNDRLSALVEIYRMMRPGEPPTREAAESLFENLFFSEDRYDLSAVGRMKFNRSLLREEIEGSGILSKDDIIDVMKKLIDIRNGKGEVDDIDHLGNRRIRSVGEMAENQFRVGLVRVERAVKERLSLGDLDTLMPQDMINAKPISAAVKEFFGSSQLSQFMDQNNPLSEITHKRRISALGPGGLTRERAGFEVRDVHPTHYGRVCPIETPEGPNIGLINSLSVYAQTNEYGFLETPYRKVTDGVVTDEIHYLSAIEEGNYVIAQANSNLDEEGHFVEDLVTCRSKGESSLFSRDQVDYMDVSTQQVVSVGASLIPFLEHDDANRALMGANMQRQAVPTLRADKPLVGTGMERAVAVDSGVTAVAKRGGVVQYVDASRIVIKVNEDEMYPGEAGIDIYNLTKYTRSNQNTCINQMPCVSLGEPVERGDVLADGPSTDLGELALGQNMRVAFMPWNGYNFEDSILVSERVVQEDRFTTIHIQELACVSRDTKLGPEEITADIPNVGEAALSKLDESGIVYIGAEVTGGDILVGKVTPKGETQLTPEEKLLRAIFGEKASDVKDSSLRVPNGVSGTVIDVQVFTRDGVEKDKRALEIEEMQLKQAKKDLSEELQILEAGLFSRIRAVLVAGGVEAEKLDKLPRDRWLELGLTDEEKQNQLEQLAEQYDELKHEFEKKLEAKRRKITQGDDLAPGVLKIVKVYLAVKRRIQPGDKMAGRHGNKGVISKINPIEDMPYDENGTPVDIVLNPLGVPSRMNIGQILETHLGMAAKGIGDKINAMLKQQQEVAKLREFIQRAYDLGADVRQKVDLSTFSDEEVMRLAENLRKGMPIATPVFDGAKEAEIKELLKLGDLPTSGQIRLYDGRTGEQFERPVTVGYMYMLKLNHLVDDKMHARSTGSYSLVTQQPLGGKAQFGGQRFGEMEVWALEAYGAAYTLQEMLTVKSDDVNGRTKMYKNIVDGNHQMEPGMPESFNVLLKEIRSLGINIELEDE
Chain of RNA-Polymerase von Escherichia coli (P0A7Z4 whole entry, further chain): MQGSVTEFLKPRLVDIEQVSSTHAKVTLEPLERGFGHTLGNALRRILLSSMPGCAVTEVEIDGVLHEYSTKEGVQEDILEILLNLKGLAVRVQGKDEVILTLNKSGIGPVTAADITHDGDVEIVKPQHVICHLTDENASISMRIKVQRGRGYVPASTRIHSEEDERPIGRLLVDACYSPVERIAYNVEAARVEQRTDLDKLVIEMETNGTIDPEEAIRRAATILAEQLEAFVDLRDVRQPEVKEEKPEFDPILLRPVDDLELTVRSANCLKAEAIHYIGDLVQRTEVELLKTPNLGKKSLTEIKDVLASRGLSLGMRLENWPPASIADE

## COC1C=COC2(C)Oc3c(C)c(OC(=O)C(C)(C)C)c4c(c3C2=O)C(=O)C(N2CCN(Cc3c(C)cc(C)cc3C)CC2)=C(C4=O)N(C(=O)C(C)(C)C)C(=O)C(C)=CC=CC(C)C(O)C(C)C(O)C(C)C(OC(C)=O)C1C (stereo not shown) [8-O,N-Dipivaloyl-3-[4-(2,4,6-trimethylbenzyl)-1-piperazinyl]-rifamycin S]
Staphylococcus aureus [1]
  MIC: ~64 µg/mL (≈ 59.2 µM)
[2]
  EC50: > 92.6 µM
[3]
  Senkung der "LDL-Fraktion": 50-70%
Staphylococcus aureus [4]
  antibiotische Wirksamkeit in vivo: antibiotisch unwirksam

Reference: patent EP0308568A1, “Diacyl derivatives of 4-(trialkylbenzyl)-piperazinyl compounds” (CIBA-GEIGY AG, priority 1987, dated 1989)
